Eight compounds from US20090298811A1, “BENZIMIDAZOLONE DERIVATIVES” (Pfizer Inc, priority 2006, published 2009) can be followed below.

A word on the melting point: it is the temperature, or range, at which the solid turns liquid. In general, EC50 refers to the concentration that produces a half-maximal response. Low readings indicate higher potency in that assay, high ones lower potency in that assay. For orientation: Ki means a dissociation constant, usually derived from enzyme kinetics or from competition with a known ligand.

Where a name gives a salt, the structure may show the parent alone.

Series [1] addresses T1, human CB1 receptor (Homo sapiens, UniProt P21554). Kind of series: GTPγS binding on membranes of CHO cells expressing the human CB1 receptor. Conditions: CHO cell membranes, [35S] GTPγS. The arrangement: expressed in transfected cells; host or cells: CHO cells (G418 selection); membranes. The class given is biochemical. How it is done:
Membrane preparation: CHO cells expressing the human CB1 receptor were grown to 80% confluence in Ham's F-12 Nutrient Medium (Invitrogen) containing 10% fetal bovine serum (Invitrogen), 1% pen/strep (Invitrogen), 1% Nonessential amino acids (Invitrogen) and 500 μg/ml G418 (Invitrogen). Cells were released from flasks using Cell Dissociation Buffer (Invitrogen). Cells were pelleted by centrifugation at 500×G for 5 minutes. Membranes were prepared by resuspending cells in ice cold Assay Buffer (25 mM Tris pH 7.4, 5 mM EDTA, 5 mM EGTA, Complete Protease Inhibitor (Roche)). Cells were lysed with 12 strokes of a dounce homogenizer. Unlysed cells were pelleted by centrifugation at 500×G for 5 minutes. Membranes were pelleted by centrifugation at 25,000×G for 30 minutes. Membranes were resuspended in TEE, dounced 12 strokes, and pelleted a second time at 25,000×G for 30 minutes. Membrane pellet was resuspended in 50 mM Tris pH 7.4, 100 mM NaCl, 3 mM MgCl2, 0.2 mM EGTA, Complete Protease Inhibitor (Roche). Protein concentration was determined using the Micro-BCA Protein Assay Kit (Pierce) using BSA as a standard. Membranes were frozen and stored at −80 degrees Celsius until use. GTPγS Binding: 40 μl of test compound was incubated with 20 μl of [^35S] GTPγS (Perkin Elmer) (1250 Ci/millimole) and 140 μl of membrane homogenate (5 ug/well) in polypropylene 96-well plates (Corning). Final reaction conditions were 50 mM Tris pH 7.4, 100 mM NaCl, 3 mM […], 0.2 mM EGTA, 0.04% BSA. After incubation at 37 degrees Celsius for 45 minutes reactions were harvested by vacuum filtration through Unifilter GF/B-96 filters (Perkin Elmer) using a FilterMate Plate Harvester (Perkin Elmer). Filters were rinsed 4 times with ice cold 50 mM Tris pH 7.4, 3 mM MgCl2, 0.2 mM EGTA and dried at 50 degrees Celsius for at least 30 minutes. 40 μl of Microscint-20 (Perkin Elmer) was added per well, and plates were counted using a Top-Count Microplate Scintillation Counter (Perkin Elmer). Binding data were analyzed and EC50 values were calculated using Graph Pad Prism 4.0 Software.
(GTPγS is a poorly hydrolysed GTP analogue; its binding reports G protein activation.)

In series [2] the target is T1, human CB1 receptor. Kind of series: Human CB1 receptor binding, [3H] CP-55,940 displacement on HEK cell membranes. On the set-up: expressed in transfected cells; membranes. Conditions: [3H] CP-55,940 500 pM. How it is done: The Human CB1 receptor binding affinity and other biological activities of the compounds of this invention are determined by the following procedures.
Membrane preparation: Human Embryonic Kidney (HEK) Cells expressing the human CB1 receptor under transcriptional regulation of a tetracycline inducible promoter were grown in Dulbecco's Modified Essential Medium with sodium pyruvate (Invitrogen, Carlsbad, Calif.) containing 10% tetracycline free fetal bovine serum (Clonetech, Mountain View, Calif.) 100 μg/ml hygromycin (Calbiochem, San Diego, Calif.), 5 μg/ml blasticidin (Invitrogen). CB1 receptor expression was induced by addition of 1 μg/ml doxycycline (Calbiochem) and incubation for an additional 24 hours. Cells were released from flasks using Cell Dissociation Buffer (Invitrogen). Cells were pelleted by centrifugation at 500×G for 5 minutes. Membranes were prepared by resuspending cells in ice cold TEE Buffer (25 mM Tris pH 7.4, 5 mM EDTA, 5 mM EGTA, Complete Protease Inhibitor (Roche, Basel, Switzerland)). Cells were lysed with 12 strokes of a dounce homogenizer. Unlysed cells were pelleted by centrifugation at 500×G for 5 minutes. Membranes were pelleted by centrifugation at 25,000×G for 30 minutes. Membranes were resuspended in TEE, dounced 12 strokes, and pelleted a second time at 25,000×G for 30 minutes. Membrane pellet was resuspended in 50 mM Tris pH 7.4, 100 mM NaCl, 3 mM MgCl2, 0.2 mM EGTA, Complete Protease Inhibitor (Roche). Protein concentration was determined using the Micro-BCA Protein Assay Kit (Pierce, Rockford, Ill.) using BSA as a standard. Membranes were quick frozen and stored at −80 degrees Celsius until use. Binding experiments: 50 μl of test compound was incubated with 50 μl, of [^3H] CP-55,940 (Perkin Elmer, Boston, Mass.) (final concentration 500 pM) and 150 μl of membrane homogenate (1 μg/well) in polypropylene 96-well plates (Corning, Acton, Mass.). Final reaction conditions were 50 mM Tris pH 7.4, 100 mM NaCl, 3 mM MgCl2, 0.2 mM EGTA, 0.04% BSA. Nonspecific binding was determined by incubation with 50 μM WIN-55,212-2 (Tocris, Ellisville, Mo.). After incubation at room temperature for 60 minutes reactions were harvested by vacuum filtration through Unifilter GF/B-96 filters (Perkin Elmer) that had been presoaked in assay buffer containing 0.5% BSA (Sigma, St. Louis, Mo.) using a FilterMate Plate Harvester (Perkin Elmer). Filters were rinsed 4 times with 50 mM Tris pH 7.4, 0.025% Tween20 and dried at 50 degrees Celsius for at least 30 minutes. 40 μl of Microscint-20 (Perkin Elmer) was added per well, and plates were counted using a Top-Count Microplate Scintillation Counter (Perkin Elmer). Binding data were analyzed and EC50 and Ki values calculated using Graph Pad Prism 4.0 Software.

T1 sequence (P21554 whole entry): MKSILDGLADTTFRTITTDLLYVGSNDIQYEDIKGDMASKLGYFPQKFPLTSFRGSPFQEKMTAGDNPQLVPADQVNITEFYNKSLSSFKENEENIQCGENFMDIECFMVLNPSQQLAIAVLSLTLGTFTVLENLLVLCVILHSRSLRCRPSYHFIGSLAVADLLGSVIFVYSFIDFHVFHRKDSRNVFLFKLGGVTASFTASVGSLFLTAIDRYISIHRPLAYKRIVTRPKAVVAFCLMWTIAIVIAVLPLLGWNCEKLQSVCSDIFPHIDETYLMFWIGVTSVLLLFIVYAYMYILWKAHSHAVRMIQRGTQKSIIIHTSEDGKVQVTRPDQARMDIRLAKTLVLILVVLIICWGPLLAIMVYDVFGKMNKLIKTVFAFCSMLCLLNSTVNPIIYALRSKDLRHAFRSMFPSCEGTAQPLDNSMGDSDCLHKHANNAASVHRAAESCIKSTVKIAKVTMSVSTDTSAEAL

For the compound `Cc1cccc2c1n(CCS(C)(=O)=O)c(=O)n2C(=O)N[C@H](C(=O)N(C)C)C(C)(C)C`, the melting point is 190.7 °C.
As for `CCCCCn1c(=O)n(C(=O)N[C@H](C(N)=O)C(C)C)c2ccccc21` [Example 205], the response on human CB1 receptor [1] was half-maximal at 422 nM (EC50). This compound returned an inhibition constant Ki at human CB1 receptor [2] of 69 nM.
In the case of `CC[C@H](C)[C@H](NC(=O)n1c(=O)n(CCN2CCCCC2)c2ccccc21)C(N)=O` (as salt: hydrochloride), the melting point stood at 217.1 °C.
In the case of `CC(C)(C)[C@H](NC(=O)n1c(=O)n(CC2CCCCC2)c2cc(F)ccc21)C(N)=O` [Example 169], the EC50 on human CB1 receptor [1] was found to be 1 nM. For the same compound, the Ki at human CB1 receptor [2] was 0.28 nM.
For `CC(C)(C)[C@H](NC(=O)n1c(=O)n(Cc2ccccc2)c2ccccc21)C(=O)NCCCO` [Example 361], in that order: 249 nM and 24.7 nM.
For `Cc1cc(CNC(=O)n2c(=O)n(CC3CCOCC3)c3ccccc32)c(C(F)(F)F)o1` [Example 320], in that order: 98.6 nM and 4.2 nM.
For `CC(C)(C)[C@H](NC(=O)n1c(=O)n(CC2CC=C(F)CC2)c2ccccc21)C(N)=O` (some centres unmarked) [Example 304], in that order: 0.87 nM and 0.15 nM.
In turn, `O=C(N[C@H]1CCCc2ccccc21)n1c(=O)n(CC2CCC2)c2ccccc21` [Example 198] registered a 50% effective concentration (EC50) on human CB1 receptor [1] of 46.5 nM. Also, the affinity on human CB1 receptor [2] corresponds to a Ki of 5.79 nM.
